Data from patent US8354447B2, “mGLU receptors antagonists for treating disorders associated with mGLU receptors including addiction and depression” (The Scripps Research Institute, priority 2002, dated 2013).

Experiments:
male Wistar rats [1] = experiment: ICSS thresholds during and after withdrawal from chronic nicotine, bupropion; type: in vivo, rat
Text: Trials began with an electrical stimulus followed by a 7.5-s response window within which the animal could make a response to receive a second contingent stimulus identical to the initial noncontingent stimulus. A response during this 7.5-s window was considered a positive response, whereas the lack of a response was considered a negative response. Additional responses during a 2-s period immediately following a positive response had no consequence. The intertrial interval (ITI) that followed either a positive response or the end of the response window (in the case of a negative response) ranged from 7.5 to 12.5 s with an average duration of 10 s. […] Subjects then were tested on a current-threshold procedure in which stimulus intensities were varied during four alternating descending and ascending series with a step size of […]. Blocks of three trials were offered at each current step with the starting current of the first descending series set at […] above the subjects' individual baseline thresholds estimated at the end of preliminary training. […] An ascending series was terminated after two consecutive blocks of trials during which the animal made positive responses on at least two out of the three trials or after 15 successive increments were presented. The mean of the four current thresholds from the alternating series was defined as the subject's ICSS threshold for that session. A series was terminated after either 15 stimulus increments (or decrements) had occurred, or after the determination of the threshold for the series (see below). Each test session typically lasted 30 min.
Naive animals were prepared with osmotic minipumps containing either an individualized nicotine solution (3.16 mg/kg per day, free base) or saline. […] After implantation of the minipumps, thresholds were assessed daily thereafter to assess the effects of chronic nicotine exposure on reward thresholds. Seven days (exactly seven 24-h periods) after pump insertion, the pumps were removed in order to precipitate the nicotine withdrawal syndrome. ICSS thresholds were measured 12, 18, 24, 36, 48 and 72 h after pump removal. Animals were injected with bupropion (0, 10, 20, 40 mg/kg IP; n=8-11) 30 min prior to the 18-h time point.

male Wistar rats [2] = experiment: Somatic signs of the nicotine withdrawal syndrome; type: in vivo, rat; conditions: six hours after removal of the nicotine-containing minipumps
Procedure: Rats were placed individually in transparent plastic cylindrical containers (30×38 cm) in which they could move freely. Subjects were habituated to the containers for 10 min each day over 3 days before the first test session. During the test sessions the rats were observed blindly by an experienced observer for 10 min and the frequency of the following signs was recorded based on a checklist of nicotine abstinence signs (Hildebrand et al. 1999; Watkins et al. 2000; Malin 2001): body shakes, chews, cheek tremors, escape attempts, eye blinks, foot licks, gasps, genital licks, head shakes, ptosis, scratches, teeth chattering, writhes and yawns. Multiple successive counts of any sign required a distinct pause between episodes. Ptosis, if present continuously, was only counted once per minute. For statistical analyses, the total number of somatic signs was defined as the sum of individual occurrences of the above mentioned withdrawal signs. Further, the categories of “abdominal constrictions” included gasps and writhes; “facial fasciculation” included cheek tremors, chews, and teeth chattering; and “miscellaneous other signs” included shakes, escape attempts, licks, scratches, and yawns.
Separate drug-naive rats were prepared with osmotic minipumps containing nicotine (3.16 mg/kg per day for 7 days) dissolved in saline. […] Further, this nicotine dose was selected to allow direct comparison of the effects of bupropion on somatic signs (present experiment 4) and on reward threshold elevations (experiment 3 described above) observed during nicotine withdrawal. To induce the somatic signs of nicotine withdrawal the minipumps were removed 6 days and 18 h after implantation. The behavioral observations were conducted 6, 12 and 24 h after the removal of the minipumps. The rats were injected with bupropion (0, 5, 10, 20, 40 mg/kg, IP; n=6-8), 30 min prior to the 12-h time point. The selection of the time points was based on the time-course of the expression of the somatic signs after the termination of nicotine exposure (Epping-Jordan et al. 1998; Harrison et al. 2001a; Semenova and Markou 2003; Skjei and Markou 2003).

mice = conditions: 30 mg/kg i.p.; cited from earlier work
Wistar rats [3] = experiment: Cocaine-induced lowering of ICSS thresholds; type: in vivo, rat
Wistar rats [4] = experiment: Cocaine self-administration under a fixed ratio schedule, ShA and LgA rats; type: in vivo, rat
Procedure: Rats (n=14) were food restricted to maintain them at 85% of their normal body weight obtained under free-feeding conditions, then trained to press a lever for 45 mg food pellets on a fixed-ratio 5 (FR5) schedule of reinforcement. […] Thus, a FR5 TO20 sec schedule of reinforcement was used.
The frequency of the stimulation was selected for individual animals so that baseline current-intensity thresholds of each subject were within 50-200 μA, and thus allowed both threshold elevations and lowerings to be detected. The frequency was held constant throughout the experiment. […] Current intensities were altered in 5 μA steps. […] Each testing session was ~30 min in duration. […] From day 10 onwards (the ‘escalation’ period), access to cocaine self-administration was increased from 1 h to 6 h per daily session in one group of rats (Long Access or LgA rats; n=7). Previous studies have shown that this schedule of access to cocaine self-administration results in a progressive increase or ‘escalation’ in daily cocaine consumption (Ahmed and Koob, 1997; Ahmed et al. 2001). In the other group (Short Access or ShA rats; n=7), access to cocaine self-administration was maintained at 1 h per daily session. Previous studies have shown that this schedule of access to cocaine self-administration maintains a stable level of daily cocaine consumption. After 22 days of 1 h (ShA) or 6 h (LgA) daily access to cocaine self-administration, both groups of rats received their first MPEP injection.

[5] = MPEP 3 mg/kg, 10, 40, 70 and 100 min

SMILES: CN1CCCC1c1cccnc1 (single isomer, unassigned; (-)) [nicotine, (−)-1-methyl-2-(3-pyridyl) pyrrolidine]
- day of maximal threshold-lowering effect (male Wistar rats [1]; nicotine via minipumps): 3 days
- brain reward threshold (male Wistar rats [1]; nicotine via minipumps 3.16 mg/kg per day for 7 days): small yet significant reduction in brain reward threshold
- time points with significant elevation in reward thresholds post-withdrawal (male Wistar rats [1]; nicotine withdrawal, saline-injected animals): up to 36 h
- brain reward thresholds (male Wistar rats [1]; withdrawal from chronic nicotine administration): significantly elevated brain reward thresholds
- total somatic signs of abstinence (male Wistar rats [2]): significant increase in the amount of total somatic signs of abstinence

SMILES: Cc1cccc(C#Cc2ccccc2)n1 [MPEP, 2-methyl-6-(phenylethynyl)-pyridine]
- rotarod performance (mice): had no effect on rotarod performance
- duration of cocaine-induced lowering of ICSS thresholds (Wistar rats [3]; MPEP 3 mg/kg): did not attenuate the duration of time that cocaine lowered ICSS thresholds
- ICSS Thresholds (Wistar rats [3]; [5]): had no effect on ICSS thresholds at any time-point
- ICSS response Latencies (Wistar rats [3]; [5]): had no effect on response latencies at any time-point
- ICSS Thresholds (Wistar rats [3]; MPEP 9 mg/kg before cocaine 10 mg/kg, compared to cocaine-treated rats that received vehicle): significantly elevated in cocaine-treated rats that previously received MPEP (9 mg/kg) compared to cocaine-treated rats that received vehicle injection
- ICSS Thresholds (Wistar rats [3]; MPEP 9 mg/kg before cocaine 10 mg/kg, compared to saline-treated rats pretreated with vehicle): still significantly lowered compared to saline-treated rats pretreated with vehicle
- magnitude of cocaine-induced lowering of ICSS thresholds (Wistar rats [3]; MPEP 1-9 mg/kg): did not attenuate the magnitude of the lowering in ICSS thresholds observed after systemic cocaine administration
- ICSS Thresholds (Wistar rats [3]; MPEP alone, 6 and 9 mg/kg significant): significantly elevated ICSS thresholds
- ICSS response Latencies (Wistar rats [3]; MPEP, only the highest dose (9 mg/kg)): significantly increased response latencies
- cocaine responding (Wistar rats [4]; 3, 6 and 9 mg/kg MPEP, ShA and LgA rats collapsed): significantly decreased cocaine responding in the collapsed group
- cocaine responding (Wistar rats [4]; 3, 6 and 9 mg/kg MPEP, ShA rats): significantly decreased cocaine responding in ShA rats
- cocaine self-administration (Wistar rats [4]; MPEP 1-9 mg/kg, FR5 TO20 sec): decreased cocaine self-administration in ShA and LgA rats
- cocaine responding (Wistar rats [4]; only the highest dose of MPEP (9 mg/kg), LgA rats): significantly decreased cocaine responding in LgA rats
